Test [1] has as its system bacterial strains that express the class D cephalosporinase OXA-15. As to the kind of experiment: Standard BLI potentiation MIC / synergy MIC assays, strains expressing OXA-15. In kind it is cell-based, E. coli. The note with it: in combination with a β-lactam; comparator Avibactam (CCC). The essentials: (§1)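 Broth microdilution in cation-adjusted Mueller Hinton broth per CLSI M07-A9, ~10^5 CFU/mL, 18-20 h at 37 °C with aeration; engineered E. coli carrying β-lactamase plasmids kept on 25 μg/mL tetracycline. β-lactam MIC measured in 2-fold dilutions (128-0.13 μg/mL) with BLI fixed at 4 μg/mL; sMIC titrates BLI against a fixed β-lactam concentration. MIC = lowest concentration without visible turbidity.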

Test [2] relates to bacterial strains that express KPC β-lactamases. The test is described as follows: Standard BLI potentiation MIC / synergy MIC assays, strains expressing KPC β-lactamases. Particulars: in combination with a β-lactam; comparator Avibactam. The class given is cell-based. Summed up:
as §1

Counter-ions that a name gives are not always drawn.

For `N[C@H]1C[C@H](CCc2nnc([C@@H]3CC[C@@H]4CN3C(=O)N4OS(=O)(=O)O)o2)C1` [Compound 753, (2S,5R)-2-(5-(2-((1r,3R)-3-aminocyclobutyl)ethyl)-1,3,4-oxadiazol-2-yl)-7-oxo-1,6-diazabicyclo[3.2.1]octan-6-yl hydrogen sulfate], the “activity against bacterial strains that express the class D cephalosporinase OXA-15, compared with Avibactam” value in test [1] is recorded as “more active than Avibactam”. For the same molecule, in test [2], the “activity and/or spectrum of activity against bacterial strains that express KPC β-lactamases, compared with Avibactam” value is “more active than Avibactam for at least one, bacterial strain that expresses KPC β-lactamase and/or show a better spectrum of activity”.

For the molecule `N[C@H]1C[C@@H](CCc2nnc([C@@H]3CC[C@@H]4CN3C(=O)N4OS(=O)(=O)O)o2)C1` [Compound 754, (2S,5R)-2-(5-(2-((1s,3S)-3-aminocyclobutyl)ethyl)-1,3,4-oxadiazol-2-yl)-7-oxo-1,6-diazabicyclo[3.2.1]octan-6-yl hydrogen sulfate], the “activity against bacterial strains that express the class D cephalosporinase OXA-15, compared with Avibactam” value in test [1] is on record as “more active than Avibactam”. The “activity and/or spectrum of activity against bacterial strains that express KPC β-lactamases, compared with Avibactam” value in test [2] is given as “more active than Avibactam for at least one, bacterial strain that expresses KPC β-lactamase and/or show a better spectrum of activity”.

For the molecule `NC1CC(NCc2nnc([C@@H]3CC[C@@H]4CN3C(=O)N4OS(=O)(=O)O)o2)C1` (stereo partly drawn) [Compound 755, (2S,5R)-2-(5-(((3-aminocyclobutyl)amino)methyl)-1,3,4-oxadiazol-2-yl)-7-oxo-1,6-diazabicyclo[3.2.1]octan-6-yl hydrogen sulfate], in test [1], the “activity against bacterial strains that express the class D cephalosporinase OXA-15, compared with Avibactam” value is on record as “more active than Avibactam”. In addition, the “activity and/or spectrum of activity against bacterial strains that express KPC β-lactamases, compared with Avibactam” value in test [2] is “more active than Avibactam for at least one, bacterial strain that expresses KPC β-lactamase and/or show a better spectrum of activity”.

Regarding `N[C@H]1C[C@@H](NCc2nnc([C@@H]3CC[C@@H]4CN3C(=O)N4OS(=O)(=O)O)o2)C1` [Compound 756, (2S,5R)-2-(5-((((1s,3R)-3-aminocyclobutyl)amino)methyl)-1,3,4-oxadiazol-2-yl)-7-oxo-1,6-diazabicyclo[3.2.1]octan-6-yl hydrogen sulfate], the “activity against bacterial strains that express the class D cephalosporinase OXA-15, compared with Avibactam” value in test [1] is recorded as “more active than Avibactam”. Also, the “activity and/or spectrum of activity against bacterial strains that express KPC β-lactamases, compared with Avibactam” value in test [2] is reported as “more active than Avibactam for at least one, bacterial strain that expresses KPC β-lactamase and/or show a better spectrum of activity”.

Consider `O=C1N2C[C@@H](CC[C@H]2c2nnc([C@H]3CCNC3)o2)N1OS(=O)(=O)O` [Compound 758, (2S,5R)-7-oxo-2-(5-((S)-pyrrolidin-3-yl)-1,3,4-oxadiazol-2-yl)-1,6-diazabicyclo[3.2.1]octan-6-yl hydrogen sulfate], for which the “activity against bacterial strains that express the class D cephalosporinase OXA-15, compared with Avibactam” value in test [1] is “more active than Avibactam”. Besides, the “activity and/or spectrum of activity against bacterial strains that express KPC β-lactamases, compared with Avibactam” value in test [2] was “more active than Avibactam for at least one, bacterial strain that expresses KPC β-lactamase and/or show a better spectrum of activity”.

For `O=C1N2C[C@@H](CC[C@H]2c2nnc([C@@H]3CCNC3)o2)N1OS(=O)(=O)O` [Compound 759, (2S,5R)-7-oxo-2-(5((R)-pyrrolidin-3-yl)-1,3,4-oxadiazol-2-yl)-1,6-diazabicyclo[3.2.1]octan-6-yl hydrogen sulfate], the “activity against bacterial strains that express the class D cephalosporinase OXA-15, compared with Avibactam” value in test [1] is on record as “more active than Avibactam”. Further, the “activity and/or spectrum of activity against bacterial strains that express KPC β-lactamases, compared with Avibactam” value in test [2] is “more active than Avibactam for at least one, bacterial strain that expresses KPC β-lactamase and/or show a better spectrum of activity”.

The values are drawn from patent US8962843B2, “1,3,4-oxadiazole and 1,3,4-thiadiazole beta-lactamase inhibitors” (priority 2012, dated 2015).
